Assay results from patent US20160022605A1, “METHODS FOR REDUCING MICROSATELLITE INSTABILITY INDUCED BY CHEMOTHERAPY AND METHODS FOR SCREENING ANTIOXIDANTS THAT SUPPRESS DRUG-INDUCED MICROSATELLITE INSTABILITY WHILE ENHANCING THE CYTOTOXICITY OF CHEMOTHERAPEUTIC AGENTS” (priority 2014, published 2016).
“Also recorded” adds a separate entry of the source.

Legend:
HCT116 cells [1] = assay: Intracellular ROS assay (DCDHF-DA, flow cytometry); format: cell-based, human; details: 3-day treatment, 3-day recovery; 10 μM 5-FU, 25 nM methotrexate, 50 μM CCNU, 1 μM oxaliplatin
Procedure: Intracellular ROS levels were measured using an oxidation-sensitive 2′,7′-dichlorodihydrofluorescein diacetate (DCDHF-DA) probe, which can be oxidized to the fluorescent 2′,7′-dichloro-fluorescein (DCF) product. After treatment, HCT116 derivatives in 12-well plates were harvested, washed and resuspended in PBS containing 10 μM DCDHF-DA, followed by 30-min incubation at 37° C. in the dark before being subjected to flow cytometry (Quanta SC-MPL). For a ROS curve of H2O2, 2×10^5 HCT116 derivatives were detached, washed, and incubated with 10 μM DCDHF-DA for 30 min at 37° C., followed by flow cytometric analysis after 30-min exposure to different concentrations of H2O2. After excluding cell debris on the basis of electronic volume and side scatter, the fluorescence intensity of DCF was measured in fluorescence channel 1 of the flow cytometer (λex: 488 nm; λem: 525 nm). The ROS level is expressed as the mean fluorescence intensity (MFI) of DCF from 10,000 cells per sample.

HCT116 cells [2] = assay: Fluoresceinated PCR-based assay of endogenous microsatellites (Bethesda panel); format: cell-based, human; details: 3-day recovery
Procedure: Genomic DNA was isolated from HCT116 derivatives in 12-well plates with EasyPure Genomic DNA mini kit. The isolated DNA were amplified with fluoresceinated primers specific for the Bethesda panel of microsatellite [Boland et al., 1998] and selected coding microsatellites as described previously [Li et al., 2014]. Fluoresceinated PCR products were analyzed by the ABI 310 genetic analyzer, and electropherograms were generated with GeneScan Collection software (ABI).

HCT116+chr3-(CA)13 cells = assay: MSI analysis by high-content microscopy in MMR-proficient cells; format: cell-based, human; details: 3-day treatment (50 μM CCNU, 5 μM etoposide, 25 nM vinblastine), 3-day recovery; base line 0.35%
Procedure: (§2) Specified cells were seeded at 1×10^4 or 1×10^5 cells per well in 96-well or 12-well plates respectively. One day after seeding, the cells were treated in triplicates for 3 days with a tested drug in the presence or absence of an antioxidant at indicated concentrations. Subsequently, the drug and/or antioxidant were removed and cells were washed and recovered in fresh growth medium for 3 days before being subjected to analyses. […] On the other hand, PBS was used to make 0.5 M vitamin C stock, saline for making 0.5 M NAC and 0.1 M GSH stocks, and DMSO for making 10 mM curcumin and 10 mM eugenol. Prior to the experiments, PBS was used for diluting the drugs and antioxidants and the final solvent concentration was kept the same for all tested compounds, including untreated controls.

HCT116-(CA)13 cells [3] = assay: Frameshift mutation (MSI) analysis by flow cytometry with dual-fluorescent reporter; details: for MSI induction (in words): HCT116 derivatives, single drug; for mutation frequency: 3-day treatment, 3-day recovery, untreated 0.46±0.04%
Procedure: as §2
At the end of treatment, adherent cells in 12-well plates were trypsinized and resuspended in PBS containing 1 mM EDTA, and filtered through a 40-μm strainer, and then subjected to flow cytometry (Quanta™ SC-MPL, Beckman Coulter). […] The frequency of frameshift mutations is expressed as the percentage of DsRed^+GFP^+ subpopulation in the GFP^+ cell population.

HCT116-(CA)13 cells [4] = assay: REDOX library screen by high-content microscopy (MSI frequency and cell numbers); format: cell-based, human; details: 1 μM oxaliplatin, additional concentrations, 3-day co-treatment, 3-day recovery
Procedure: The REDOX library (Cat# BML-2835, ENZO, USA) is composed of 84 compounds that were supplied at 10 mM in DMSO. HCT116-(CA)13 cells were seeded at 1×10^4 cells per well in 96-well glass plates containing 100 μl growth medium. One day after seeding, the cells were co-treated with 1 μM oxaliplatin and an antioxidant at specified concentrations in triplicate for three days, followed by a 3-day recovery in fresh growth medium without the drug and antioxidants.

HCT116 cells [5] = assay: MTT assay, oxaliplatin co-treatment in MMR-deficient cells; details: MMR-deficient HCT116, 1 μM oxaliplatin with 2-10 μM antioxidant, 3-day co-treatment
Procedure: (§1) Cell viability was determined by the MTT assay. Briefly, the optical density of colored formazan converted from MTT by viable cells was determined as previously described [Chang et al., 2002] at 595 nm with an ELISA reader (Thermo Labsystems). Cell viability is expressed as the optical density value of drug-treated cells relative to that of solvent-treated cells, after subtracting the background from the medium.

HCT116+chr3 cells = assay: MTT assay in MMR-proficient cells; details: MMR-proficient HCT116+chr3, 1 μM oxaliplatin with 2-10 μM antioxidant, 3-day co-treatment
Procedure: as §1

HCT116-(CA)13 cells [6] = assay: Cell viability (MTT assay) with drug and antioxidant co-treatment; details: for effect on methotrexate-mediated cytotoxicity (in words): 25 nM methotrexate with NAC, GSH or vitamin C
Procedure: as §1

HCT116-(CA)13 cells [7] = details: for suppression of methotrexate-induced MSI: 25 nM methotrexate with 2.5 mM NAC, 250 μM vitamin C or 1.5 μM curcumin; for suppression of methotrexate-induced MSI / suppression of CCNU-induced MSI: 5 mM GSH; for suppression of CCNU-induced MSI: 50 μM CCNU with 2.5 mM NAC, 250 μM vitamin C, 1.5 μM curcumin or 150 μM eugenol
Procedure: After treatment, HCT116-(CA)13 cells in 96-well glass plates (Corning-Costar®) were fixed with 4% paraformaldehyde and nuclei were stained with 1 μg/ml Hoechst 33258. Fluorescent images of the cells were acquired at 100× magnification by ImageXpress^Micro system (Molecular Devices) and analyzed with MetaXpress® V3.1 software as described previously [Li et al., 2014]. The frequency of frameshift mutations of the (CA)13 microsatellite is expressed as the percentage of the DsRed^+GFP^+Hoechst^+ subpopulation in the GFP^+Hoechst^+ population.

[8] = 1-day treatment, 100 μM CCNU or 100 nM methotrexate
[9] = 3-day treatment, 10 μM 5-FU, 5 μM etoposide, 25 nM vinblastine, 50 μM CCNU, 25 nM methotrexate, 1 μM oxaliplatin
[10] = 5 μM etoposide with 250 μM vitamin C

With `O=NN(CCCl)C(=O)NC1CCCCC1` [CCNU, 1-(2-chloroethyl)-3-cyclohexyl-1-nitrosourea] the “intracellular ROS levels” value (HCT116 cells [1]) was “generated the highest ROS level”, the “alteration of D5S346” value (HCT116 cells [2]; 100 μM CCNU, 1-day treatment) was 1-bp insertion in a non-repetitive region of D5S346 and the “instability of Bethesda panel microsatellite markers” value (shortened to “instability”) (HCT116 cells [2]; [8]) was “caused the instability of BAT25 and/or BAT26 microsatellites”. For the same compound, the “instability” value (HCT116 cells [2]; [9]) was “failed to detect alterations”, the MSI frequency (HCT116+chr3-(CA)13 cells) was 1.26% and the “MSI induction (in words)” value (HCT116-(CA)13 cells [3]) was “induced MSI”.
In the case of `N[C@@H]1CCCC[C@H]1N.O=C(O)C(=O)O.[Pt]` [oxaliplatin, (1R,2R)-cyclohexane-1,2-diamine;oxalic acid;platinum], the “intracellular ROS levels” value (HCT116 cells [1]) is reported as “intermediate ROS-generating abilities”, the “instability” value (HCT116 cells [2]; [9]) is reported as “alterations of four out of five microsatellite markers” and the “MSI induction (in words)” value (HCT116-(CA)13 cells [3]) is reported as “strong MSI-inducing; also recorded: induced MSI”.
`CCCCCCCCOC(=O)/C=C/c1ccc(O)c(O)c1` [n-octyl caffeate, Octyl 3-(3,4-dihydroxyphenyl)prop-2-enoate] was tested, and the “outcome of secondary screen: oxaliplatin-induced MSI and oxaliplatin-mediated cytotoxicity” value (“outcome of secondary screen” for short) (HCT116-(CA)13 cells [4]) was “most promising antioxidants”.
With `Cc1cc2c(C(C)C)c(O)c(O)c(C=O)c2c(O)c1-c1c(C)cc2c(C(C)C)c(O)c(O)c(C=O)c2c1O` [gossypol, 7-(8-formyl-1,6,7-trihydroxy-3-methyl-5-propan-2-ylnaphthalen-2-yl)-2,3,8-trihydroxy-6-methyl-4-propan-2-ylnaphthalene-1-carbaldehyde] the “effect on oxaliplatin-mediated cytotoxicity” value (HCT116 cells [5]) was “enhanced oxaliplatin-mediated cytotoxicity in a concentration-dependent manner”, the “effect on oxaliplatin-mediated cytotoxicity” value (HCT116+chr3 cells) was “enhanced oxaliplatin-mediated cytotoxicity in a concentration-dependent manner” and the “outcome of secondary screen” value (HCT116-(CA)13 cells [4]) was “most promising antioxidants; also recorded: suppress oxaliplatin-induced MSI while enhancing oxaliplatin-mediated cytotoxicity”.
For `O=C1O[C@H]([C@@H](O)CO)C(O)=C1O` [vitamin C], the “effect on methotrexate-mediated cytotoxicity (in words)” value (HCT116-(CA)13 cells [6]) was “without affecting drug cytotoxicity”, the “enhancement of etoposide-mediated cytotoxicity” value (HCT116-(CA)13 cells [6]; [10]) was about 10% and the “effect on CCNU-mediated cytotoxicity (in words)” value (HCT116-(CA)13 cells [6]; 50 μM CCNU with 250 μM vitamin C) was “without significantly affecting drug cytotoxicity”. The “suppression of methotrexate-induced MSI” value (HCT116-(CA)13 cells [7]) was 12%, the “suppression of etoposide-induced MSI” value (HCT116-(CA)13 cells [7]; [10]) was about 40% and the “suppression of CCNU-induced MSI” value (HCT116-(CA)13 cells [7]) was about 24%.
For `Cc1cc(C2CCCCC2)n(O)c(=O)c1` [ciclopirox ethanolamine, 2-aminoethanol;6-cyclohexyl-1-hydroxy-4-methylpyridin-2-one], the “outcome of secondary screen” value (HCT116-(CA)13 cells [4]) was “most promising antioxidants”.
With `COc1cc(/C=C/C(=O)CC(=O)/C=C/c2ccc(O)c(OC)c2)ccc1O` [curcumin, (1E,6E)-1,7-bis(4-hydroxy-3-methoxyphenyl)hepta-1,6-diene-3,5-dione] the “effect on oxaliplatin-mediated cytotoxicity” value (HCT116 cells [5]) was “did not show a significant effect”, the “effect on oxaliplatin-mediated cytotoxicity” value (HCT116+chr3 cells) was “did not show a significant effect” and the “outcome of secondary screen” value (HCT116-(CA)13 cells [4]) was “most promising antioxidants”. The “suppression of methotrexate-induced MSI” value (HCT116-(CA)13 cells [7]) was “did not affect methotrexate-induced MSI” and the “suppression of CCNU-induced MSI” value (HCT116-(CA)13 cells [7]) was “approximately 55%”.
With `N#CC(=Cc1ccc(O)c(O)c1)C(=O)OC/C=C/c1ccccc1` (stereo in doubt) [CDC, [(E)-3-phenylprop-2-enyl] (Z)-2-cyano-3-(3,4-dihydroxyphenyl)prop-2-enoate] the “outcome of secondary screen” value (HCT116-(CA)13 cells [4]) was “most promising antioxidants”.
For `O=c1cc(-c2ccccc2)oc2cc(O)c(O)c(O)c12` [baicalein, 5,6,7-trihydroxy-2-phenylchromen-4-one], the “outcome of secondary screen” value (HCT116-(CA)13 cells [4]) was “most promising antioxidants”.
In the case of `O=c1[nH]cc(F)c(=O)[nH]1` [5-FU, 5-fluoro-1H-pyrimidine-2,4-dione], the “intracellular ROS levels” value (HCT116 cells [1]) is reported as “increased intracellular ROS levels”, the “instability” value (HCT116 cells [2]; [9]) is reported as “induced the instability of the BAT25 microsatellite” and the mutation frequency (HCT116-(CA)13 cells [3]; 2.5 μM) is reported as 5.91±0.49%. For the same compound, the mutation frequency (HCT116-(CA)13 cells [3]; 5 μM) was 6.37±0.96%, the mutation frequency (HCT116-(CA)13 cells [3]; 10 μM) was 8.05±2.01% and the “susceptibility of (CA)13 microsatellite to drug-induced mutations compared to (N)16 random sequence” value (HCT116-(CA)13 cells [3]; 5-FU 2.5-10 μM, HCT116-(CA)13 vs HCT116-(N)16) was 1.2-2.8 fold. The “MSI induction (in words)” value (HCT116-(CA)13 cells [3]) was “induced MSI”.
In the case of `N[C@@H](CCC(=O)N[C@@H](CS)C(=O)NCC(=O)O)C(=O)O` [GSH, glutathione], the “suppression of methotrexate-induced MSI” value (HCT116-(CA)13 cells [7]) is reported as 13%.
In the case of `COc1cc([C@@H]2c3cc4c(cc3[C@@H](O[C@@H]3O[C@@H]5CO[C@@H](C)O[C@H]5[C@H](O)[C@H]3O)[C@H]3COC(=O)[C@H]23)OCO4)cc(OC)c1O` [etoposide, (5S,5aR,8aR,9R)-5-[[(2R,4aR,6R,7R,8R,8aS)-7,8-dihydroxy-2-methyl-4,4a,6,7,8,8a-hexahydropyrano[3,2-d][1,3]dioxin-6-yl]oxy]-9-(4-hydroxy-3,5-dimethoxyphenyl)-5a,6,8a,9-tetrahydro-5H-[2]benzofuro[6,5-f][1,3]benzodioxol-8-one], the “instability” value (HCT116 cells [2]; [9]) is reported as “destabilized the BAT26 microsatellite” and the MSI frequency (HCT116+chr3-(CA)13 cells) is reported as 3.74%.
With `CC(=O)N[C@@H](CS)C(=O)O` [NAC, N-acetylcysteine] the “effect on methotrexate-mediated cytotoxicity (in words)” value (HCT116-(CA)13 cells [6]) was “without affecting drug cytotoxicity”, the “effect on oxaliplatin-mediated cytotoxicity (in words)” value (HCT116-(CA)13 cells [6]; 1 μM oxaliplatin with 2.5 mM NAC, 5 mM GSH or 150 μM eugenol) was “totally abolished” and the “decrease of CCNU-mediated cytotoxicity” value (HCT116-(CA)13 cells [6]; 50 μM CCNU with 2.5 mM NAC or 5 mM GSH) was “approximately 25%”. For the same compound, the “suppression of methotrexate-induced MSI” value (HCT116-(CA)13 cells [7]) was 34%.
`C=CCc1ccc(O)c(OC)c1` [eugenol] was tested, and the “suppression of vinblastine-induced MSI” value (HCT116-(CA)13 cells [7]; 25 nM vinblastine with 150 μM eugenol) was 40% and the “suppression of CCNU-induced MSI” value (HCT116-(CA)13 cells [7]) was “approximately 55%”.
`CN(Cc1cnc2nc(N)nc(N)c2n1)c1ccc(C(=O)N[C@@H](CCC(=O)O)C(=O)O)cc1` [methotrexate, (2S)-2-[[4-[(2,4-diaminopteridin-6-yl)methyl-methylamino]benzoyl]amino] pentanedioic acid] was tested, and the “intracellular ROS levels” value (HCT116 cells [1]) was “but not 25 nM methotrexate increased intracellular ROS levels”, the “instability” value (HCT116 cells [2]; [8]) was “caused the instability of BAT25 and/or BAT26 microsatellites” and the “instability” value (HCT116 cells [2]; [9]) was “failed to detect alterations”. For the same compound, the “MSI induction (in words)” value (HCT116-(CA)13 cells [3]) was “induced MSI”.
In the case of `CC[C@]1(O)C[C@@H]2CN(CCc3c([nH]c4ccccc34)[C@@](C(=O)OC)(c3cc4c(cc3OC)N(C)[C@H]3[C@@](O)(C(=O)OC)[C@H](OC(C)=O)[C@]5(CC)C=CCN6CC[C@]43[C@@H]65)C2)C1` [vinblastine], the “instability” value (HCT116 cells [2]; [9]) is reported as “destabilized the BAT26 microsatellite”, the MSI frequency (HCT116+chr3-(CA)13 cells) is reported as 2.10% and the “MSI induction (in words)” value (HCT116-(CA)13 cells [3]) is reported as “induced MSI”.
